According to article PMC8968063, “Key features of inhibitor binding to the human mitochondrial pyruvate carrier hetero-dimer” (Molecular Metabolism, 2022):
Values joined by “and” are separate entries in the source; they are usually repeats but may differ in a detail not shown here. Equal values may be shown once.

How the values were obtained:
[1] = biological target: T1, human MPC1L/MPC2 complex (Homo sapiens, UniProt O95563+P0DKB6); assay: CPM thermostability shift assay, purified MPC1L/MPC2; assay type: binding; details: for ΔTm at 100 µM / Tm, CPM assay / ∆Tm, CPM assay (thermal shift compared to no-ligand control): inhibitor 100 μM; for ΔTm at 100 µM: read-out: ∆Tm, CPM assay (thermal shift compared to no-ligand control); for Tm, CPM assay: unliganded 51.3 ± 0.2, mean ± s.d., 3 biological repeats
T1 construct: eight-histidine tag (C, cleaved yes); TEV protease cleavage site (part stays on MPC2 after digestion) (C, cleaved yes); made in house; host or cells: Saccharomyces cerevisiae SHY15 (mpc triple deletion strain), purified from mitochondria
T1 sequence (P0DKB6 2-136): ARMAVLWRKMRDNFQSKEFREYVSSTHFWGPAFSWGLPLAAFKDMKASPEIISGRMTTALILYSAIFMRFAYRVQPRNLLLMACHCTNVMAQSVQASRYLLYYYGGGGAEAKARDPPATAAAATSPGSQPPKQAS
T1 sequence (O95563 2-127): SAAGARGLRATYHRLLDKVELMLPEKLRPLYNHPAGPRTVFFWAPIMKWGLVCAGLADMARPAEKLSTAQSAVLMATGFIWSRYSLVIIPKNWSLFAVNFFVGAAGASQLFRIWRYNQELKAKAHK
Procedure: The assessment of ligand binding was performed via shifts in protein thermostability upon binding using thermal denaturation on a rotary quantitative PCR (qPCR) instrument (Qiagen Rotor-Gene Q 2plex HRM, Venlo, Netherlands), as previously described. In this method, cysteine residues, buried within the protein structure, become solvent-exposed during denaturation in a temperature ramp and then react with 7-diethylamino-3-(4-maleimidophenyl)-4-methylcoumarin (CPM) to form fluorescent-adducts. Briefly, a CPM working solution was prepared by diluting the CPM stock (5 mg/mL in dimethyl sulfoxide) 50-fold into assay buffer (20 mM Tris–HCl, pH 7.4, 150 mM NaCl, 0.1% (w/v) LMNG, 0.1 mg/mL TOCL) and incubated for 10 min at room temperature. In each analysis, performed in duplicates or triplicates, 3 μg of purified MPC was diluted into 45 μL of assay buffer containing the desired concentration of the inhibitor then incubated for 10 min on ice. Next, 5 μL of the CPM working solution were added. Samples were incubated on ice for an additional 10 min then subjected to a temperature ramp of 5.6 °C/min. The fluorescence increase was monitored with the HRM channel of the instrument (excitation at 440–480 nm, emission at 505–515 nm). Unfolding profiles were analysed with the Rotor-Gene Q software 2.3, and the peaks of their derivatives were used to determine the apparent melting temperature.

[2] = biological target: T1, human MPC1L/MPC2 complex; assay: nano-DSF thermostability shift assay, purified MPC1L/MPC2; assay type: binding; details: inhibitor 100 μM; for Tm, nano-DSF: unliganded 51.9 ± 0.1, mean ± s.d., 2 biological repeats
Procedure: Ligand binding was also assessed using dye-free nano differential scanning fluorimetry (nano-DSF) to monitor fluorescence changes due to altered environments of tryptophan and tyrosine residues during unfolding. Protein samples in buffer containing 20 mM Tris–HCl pH 7.4, 150 mM NaCl, 0.1% (w/v) LMNG, 0.1 mg/mL TOCL, in the presence or absence of the indicated concentrations of small molecule inhibitors, were loaded into capillary tubes, and a temperature ramp of 5 °C/min was applied. The intrinsic fluorescence was measured using the NanoTemper Prometheus NT.48 (NanoTemper, München, Germany).

[3] = biological target: T2, human MPC1L/MPC2 hetero-dimer (Homo sapiens, UniProt O95563+P0DKB6); assay: Inhibition of [14C]-pyruvate homo-exchange in MPC1L/MPC2 proteoliposomes; assay type: biochemical
T2 construct: eight-histidine tag (C, cleaved yes); TEV protease cleavage site (part stays on MPC2 after digestion) (C, cleaved yes); made in house; host or cells: Saccharomyces cerevisiae SHY15 (mpc triple deletion strain), purified from mitochondria
T2 sequence (P0DKB6 2-136): T1 sequence (P0DKB6 2-136)
T2 sequence (O95563 2-127): T1 sequence (O95563 2-127)
Procedure: Egg L-α-phosphatidylcholine 99% (w/v) (Avanti Polar Lipids, AL, USA) and TOCL were mixed in a 20:1 (w/w) ratio, dried under a stream of nitrogen and washed once with methanol before being dried again. Lipids were hydrated in 20 mM Tris–HCl, pH 8.0, 50 mM NaCl to a concentration of 12 mg/mL. Unlabeled pyruvate was added as a freshly made concentrated stock at a final concentration of 5 mM for internalisation. Lipids were solubilised with 1.2% (v/v) pentaethylene glycol monodecyl ether (Sigma) and freshly purified protein was added at a lipid-to-protein ratio of 250:1 (w/w). Samples were incubated on ice for 5 min, then liposomes were formed by the step-wise removal of pentaethylene glycol monodecyl ether by five additions at 20 min intervals of 60 mg Bio-Beads SM-2 (Bio-Rad, Watford, UK) with gentle mixing at 4 °C. A final addition of 480 mg Bio-Beads was incubated with the samples overnight. Proteoliposomes were first separated from the Bio-Beads by passage through empty spin columns (Bio-Rad, Watford, UK) and subsequently pelleted at 120,000×g for 60 min. The proteoliposomes were resuspended with a thin needle in 150 μL of their supernatant after the rest of the supernatant was removed.
The time course of pyruvate homo-exchange was measured at room temperature. The transport was initiated by diluting proteoliposomes 200-fold into external buffer, 20 mM MES, pH 6.4, 50 mM NaCl, containing 50 μM [^14C]-pyruvate (500,000 dpm, Perkin Elmer, MA, USA). The reaction (0–30 s) was terminated by rapid dilution into 8 volumes of ice-cold internal buffer (20 mM Tris–HCl, pH 8.0, 50 mM NaCl), followed by rapid filtration through cellulose nitrate 0.45 μm filters (Millipore, Gillingham, UK) and washing with an additional 8 volumes of buffer. The filters were dissolved in Ultima Gold scintillation liquid (Perkin Elmer, MA, USA) and the radioactivity was counted with a Perkin Elmer Tri-Carb 2800 RT liquid scintillation counter. […] The data analysis was performed with non-linear regression fittings using GraphPad Prism 7.0d ([Inhibitor] vs response, variable slope). The specific uptake rates were calculated based on the amount of protein used in reconstitutions, as estimated from bicinchoninic acid assay. The biological repeats represent independent proteoliposome preparations using protein from independent purifications.

[4] = biological target: T3, recombinant human MPC1L/MPC2 (Homo sapiens, UniProt O95563+P0DKB6); assay: Electrospray mass spectrometry of MPC1L/MPC2 after reaction with inhibitors or sulfhydryl modifiers; details: for Covalent modification of MPC protomers (molecular mass change): folded MPC1L/MPC2 incubated with compound, ESI-MS; for Modifications, MPC1L (2–136) / Modifications, MPC1L (5–136) / Modifications, MPC2 (2–137): number of covalent adducts from mass increase
T3 construct: MPC1L (2–136); MPC2 (2–137); eight-histidine tag (C, cleaved yes); TEV protease cleavage site (part stays on MPC2 after digestion) (C, cleaved yes); made in house; host or cells: Saccharomyces cerevisiae SHY15 (mpc triple deletion strain), purified from mitochondria
T3 sequence (P0DKB6 2-136 limits assumed): T1 sequence (P0DKB6 2-136)
T3 sequence (O95563 2-127 limits assumed): T1 sequence (O95563 2-127)
Procedure: Different MPC inhibitors (Table1) or sulfhydryl reagents were first incubated with MPC1L/MPC2 in a folded state, then the protein molecular masses were measured by electrospray mass spectrometry. The MPC subunits (10 μg) were resolved by reverse-phase HPLC on a PLRP-S column (1.0 mm i.d. X 75 mm; VARIAN) using a gradient of 2-propanol in a solvent system compatible with the recovery of membrane proteins (Carroll et al., 2009). The eluate (50 μL/min) was introduced into a QTRAP4000 (SCIEX) mass spectrometer operating in positive ion single MS mode. The instrument was scanned from 700 m/z to 2300 m/z after calibration with ions from a mixture of 1.0 μM of myoglobin and 1.5 μM trypsinogen. Molecular masses were obtained by reconstruction of the spectra of multiply charged ions using PeakView (SCIEX).

[5] = MPC1L/MPC2 after reaction with compound

Which ΔTm at 100 µM [1] does the source give for `C=CCN1C(=O)NC(=O)/C(=C/c2ccc(-c3ccccc3[N+](=O)[O-])o2)C1=O` [Compound 13] here?
Its ΔTm at 100 µM is 7.4 ± 1.9 °C.

And the “Tm, CPM assay” value [1]?
Its value is 58.7 ± 1.7 °C.

What does the source list for `N#C/C(=C/c1ccc(-c2ccc(Cl)cc2)o1)C(=O)O` [Compound 5]?
ΔTm at 100 µM [1]: 9 ± 1.6 °C; Tm, CPM assay [1]: 60.3 ± 1.4 °C

What does the source list for `CCCC(CCC)C(=O)O` [Valproic acid, valproic acid]?
∆Tm, CPM assay (thermal shift compared to no-ligand control) [1]: no effect at all; ΔTm at 100 µM [1]: 0 °C; Tm, CPM assay [1]: 51.3 ± 0.3 °C; ∆Tm, nano-DSF [2]: -0.1 ± 0.3 °C; Tm, nano-DSF [2]: 51.8 ± 0.2 °C; Effect on pyruvate transport ([3]; 1 mM final concentration): minimal

With `N#C/C(=C/c1ccc(-c2cccc(C(F)(F)F)c2)o1)C(=O)O` [Compound 6] as the compound, how does the ΔTm at 100 µM [1] read?
Its ΔTm at 100 µM is 8.5 ± 1.6 °C.

What about the “Tm, CPM assay” value [1] of the same compound?
Its value is 59.8 ± 1.4 °C.

With `COc1cc(C2Oc3cc([C@H]4Oc5cc(O)cc(O)c5C(=O)[C@@H]4O)ccc3OC2CO)ccc1O` (some centres unmarked) [Silibinin] as the compound, how does the “Thermal shift in the CPM assay” value ([1]; compound 1 mM) read?
The value was “positive thermal shift”.

And the “∆Tm, CPM assay (thermal shift compared to no-ligand control)” value [1]?
Its value is “No thermal shifts”.

What about the ΔTm at 100 µM [1] of the same compound?
The ΔTm at 100 µM was 0.1 ± 0.6 °C.

What about the “Tm, CPM assay” value [1] of the same compound?
Its value is 51.4 ± 0.4 °C.

And the “∆Tm, nano-DSF” value [2]?
The value was 0.2 ± 0.3 °C.

And the “∆Tm, nano-DSF” value ([2]; listed as silibinin)?
The value was “No thermal shifts”.

What about the “Tm, nano-DSF” value [2] of the same compound?
Its value is 52.1 ± 0.2 °C.

What does the source list for `CS(=O)(=O)SCCN` [MTSEA]?
Mass difference (observed vs calculated), MPC1L (2–136) [4, 5]: +149.3 Da; Mass difference (observed vs calculated), MPC1L (5–136) [4, 5]: +149.2 Da; Covalent modification of MPC protomers (molecular mass change) [4]: modified covalently; Modifications, MPC1L (2–136) [4]: 2 x MTSEA; Modifications, MPC1L (5–136) [4]: 2 x MTSEA; Modifications, MPC2 (2–137) [4]: 1 x MTSEA

Which results are given for `N#C/C(=C/c1ccc(-c2ccc(Br)cc2)o1)C(=O)O` [Compound 3]?
ΔTm at 100 µM [1]: 8.4 ± 1.3 °C; Tm, CPM assay [1]: 59.7 ± 1.1 °C

With `N#C/C(=C/c1ccc(-c2ccccc2Cl)o1)C(=O)O` [Compound 8] as the compound, how does the ΔTm at 100 µM [1] read?
The ΔTm at 100 µM was 11 ± 1.9 °C.

And the “Tm, CPM assay” value [1]?
The value was 62.3 ± 1.7 °C.

How did the ΔTm at 100 µM [1] turn out when `CCc1ccc(CCOc2ccc(CC3SC(=O)NC3=O)cc2)nc1` (centres unmarked) [Pioglitazone, pioglitazone] was run?
Its ΔTm at 100 µM is 5.1 ± 0.9 °C.

And the “Tm, CPM assay” value [1]?
The value was 56.4 ± 0.7 °C.

And the “∆Tm, nano-DSF” value [2]?
Its value is 1.1 ± 0.3 °C.

And the “Tm, nano-DSF” value [2]?
The value was 53.0 ± 0.2 °C.

Which “Covalent modification of MPC protomers (molecular mass change)” value [4] does the source give for `CCN1C(=O)C=CC1=O` [NEM] here?
The value was “modified covalently”.

And the “Modifications, MPC1L (2–136)” value [4]?
The value was 2 x NEM and 1 x NEM.

And the “Modifications, MPC1L (5–136)” value [4]?
The value was “unmodified and 1 x NEM and 2 x NEM and 3 x NEM”.

And the “Modifications, MPC2 (2–137)” value [4]?
Its value is 2 x NEM and 1 x NEM and 3 x NEM.

With `O=C1CN(/N=C/c2ccc([N+](=O)[O-])o2)C(=O)N1` [Nitrofurantoin, (E)-1-[(5-nitro-2-furyl)methylideneamino]imidazolidine-2,4-dione] as the compound, how does the IC50 ([3]; MPC1L/MPC2 proteoliposomes, 50 μM [14C]-pyruvate homo-exchange, mean ± s.d., read-out: IC50 of pyruvate transport inhibition) read?
The IC50 was 3.3 ± 2.6 µM.
